According to patent US20070275961A1, “Triazolo ' 1, 5-A ! Pyrimidines and Their Use in Medicine” (VERNALIS (CAMBRIDGE) LIMITED., priority 2003, published 2007):
Read-outs that look alike come from different tables or passages of the source.

Columns and labels:
Type in all cases: biochemical
PDK1 enzyme = biological target: T1, PDK1 enzyme (Homo sapiens, UniProt O15530); assay: PDK1 3'-phosphoinositide-dependent kinase assay, phosphorylation of synthetic peptide (33P-ATP filtration); conditions: 0.01 mM ATP, read-out: PDK1 IC50
T1 sequence (O15530 1-556): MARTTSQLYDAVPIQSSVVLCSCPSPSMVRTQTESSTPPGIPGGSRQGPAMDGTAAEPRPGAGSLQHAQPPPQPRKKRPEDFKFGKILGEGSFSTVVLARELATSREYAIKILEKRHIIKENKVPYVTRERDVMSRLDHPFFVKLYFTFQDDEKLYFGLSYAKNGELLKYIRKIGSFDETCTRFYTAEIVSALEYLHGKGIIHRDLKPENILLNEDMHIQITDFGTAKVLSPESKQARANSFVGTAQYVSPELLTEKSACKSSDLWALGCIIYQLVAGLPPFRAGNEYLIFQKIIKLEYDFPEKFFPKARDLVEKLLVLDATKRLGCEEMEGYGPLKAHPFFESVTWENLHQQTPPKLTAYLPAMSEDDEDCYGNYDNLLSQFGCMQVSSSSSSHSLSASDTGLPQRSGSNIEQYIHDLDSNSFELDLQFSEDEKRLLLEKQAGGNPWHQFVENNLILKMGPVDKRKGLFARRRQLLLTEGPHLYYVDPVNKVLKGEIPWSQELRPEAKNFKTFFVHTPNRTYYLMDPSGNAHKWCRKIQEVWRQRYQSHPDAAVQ
Procedure, shortened: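 Radiometric peptide phosphorylation by PDK1 with inhibitor, 60 min at 30 °C, using 0.01 mM ATP plus 33P-γ-ATP, 0.075 mM peptide, 7.5 mM Mg acetate in Tris-HCl pH 7.5. Phosphoric acid stopped reaction; phosphorylated peptide captured on filter plates and counted by scintillation.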

Chk1 = biological target: T2, Chk1 (Homo sapiens, UniProt O14757); assay: Chk1 kinase assay, phosphorylation of Chktide (33P-ATP filtration); conditions: 0.01 mM ATP, read-out: Chk1 IC50
T2 sequence (O14757 1-476): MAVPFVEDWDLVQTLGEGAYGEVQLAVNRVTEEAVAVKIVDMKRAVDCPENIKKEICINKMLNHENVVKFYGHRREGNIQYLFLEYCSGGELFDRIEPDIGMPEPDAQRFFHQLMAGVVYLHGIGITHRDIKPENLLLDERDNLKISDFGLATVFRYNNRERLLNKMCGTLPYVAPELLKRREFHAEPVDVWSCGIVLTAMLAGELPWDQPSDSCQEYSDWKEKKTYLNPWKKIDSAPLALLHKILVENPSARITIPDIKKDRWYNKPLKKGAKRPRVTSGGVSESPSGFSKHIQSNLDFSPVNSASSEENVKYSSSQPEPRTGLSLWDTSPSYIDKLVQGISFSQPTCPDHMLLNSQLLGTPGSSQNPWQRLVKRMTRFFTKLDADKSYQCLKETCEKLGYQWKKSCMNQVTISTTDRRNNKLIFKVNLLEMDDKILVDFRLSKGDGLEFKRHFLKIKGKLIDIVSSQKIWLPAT
Procedure, shortened: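 GST-Chk1 (11 nM) with inhibitor, 30 μM Chktide peptide, 0.01 mM ATP plus 33P-γ-ATP in 50 mM Hepes pH 7.5 with 0.1 mg/ml BSA, 40 min at 30° C. Stopped with phosphoric acid; phosphorylated peptide captured on filter plates and scintillation-counted.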

[1] = biological target: CDK2 enzyme, complexed with cyclin A (Homo sapiens, UniProt P24941); assay: CDK2 cyclin dependent kinase assay, phosphorylation of synthetic peptide […] (33P-ATP filtration); conditions: 0.1 mM ATP

| Compound | IC50 (PDK1 enzyme; Table 3) [µM] | IC50 (Chk1; Table 3) [µM] | IC50 ([1]; Table 3) [µM] | IC50 (PDK1 enzyme; Table 4) [µM] | IC50 (Chk1; Table 4) [µM] | IC50 ([1]; Table 4) [µM] |
| --- | --- | --- | --- | --- | --- | --- |
| CCN(CC)CCNC(=O)c1ccc(Nc2cc(-c3cccc(C)c3)n3ncnc3n2)cc1 [Example 105] | 6.1 | 5.45 | > 200 | – | – | – |
| Cc1cccc(-c2cc(Nc3ccc(CCO)cc3)nc3ncnn23)c1 [Example 107] | 14.7 | 42.2 | > 200 | – | – | – |
| Cc1cccc(-c2cc(Nc3ccc(N(C)C)cc3)nc3ncnn23)c1 [Example 108] | 66.8 | 36.8 | > 200 | – | – | – |
| Cc1cccc(-c2cc(Nc3ccc(N4CCN(C)CC4)cc3)nc3ncnn23)c1 [Example 109] | 36 | 6.7 | > 200 | – | – | – |
| OCCc1ccc(Nc2cc(-c3cccc(F)c3)n3ncnc3n2)cc1 [Example 111] | 52.2 | 9.57 | > 200 | – | – | – |
| Fc1cccc(-c2cc(Nc3ccc(N4CCOCC4)cc3)nc3ncnn23)c1 [Example 113] | 46.5 | 5.62 | > 200 | – | – | – |
| Cc1cc(Nc2ccc(C(N)=O)cc2)nc2ncnn12 [Example 114] | > 200 | 6.42 | > 200 | – | – | – |
| CC(C)c1cc(Nc2ccc(C(N)=O)cc2)nc2ncnn12 [Example 115] | > 200 | 83.7 | 148 | – | – | – |
| NC(=O)c1ccc(Nc2cc(-c3ccccc3)n3ncnc3n2)cc1 [Example 116] | 5.11 | 9.82 | 97.5 | – | – | – |
| NS(=O)(=O)c1ccc(Nc2cc(-c3cccc(F)c3)n3ncnc3n2)cc1 [Example 118] | 6.28 | 1.54 | 116 | – | – | – |
| CCN(CC)CCNC(=O)c1ccc(Nc2cc(C)n3ncnc3n2)cc1 [Example 120] | > 200 | 0.82 | > 200 | – | – | – |
| NC(=O)c1ccc(Nc2cc(Cc3ccccc3)n3ncnc3n2)cc1 [Example 123] | > 200 | 31.4 | > 200 | – | – | – |
| CCN(CC)CCNC(=O)c1ccc(Nc2cc(Cc3ccccc3)n3ncnc3n2)cc1 [Example 124] | > 200 | 15.8 | > 200 | – | – | – |
| CCN(CC)CCNC(=O)c1ccc(Nc2cc(Cc3ccccc3OC)n3ncnc3n2)cc1 [Example 125] | > 200 | 37.4 | > 200 | – | – | – |
| COc1ccc(OC)c(Cc2cc(Nc3ccc(C(N)=O)cc3)nc3ncnn23)c1 [Example 127] | > 200 | 106 | > 200 | – | – | – |
| CCN(CC)CCNC(=O)c1ccc(Nc2cc(Cc3cc(OC)ccc3OC)n3ncnc3n2)cc1 [Example 128] | > 200 | 65.8 | > 200 | – | – | – |
| CN(C)S(=O)(=O)c1ccc(Nc2cc(-c3cccc(F)c3)n3ncnc3n2)cc1 [Example 129] | 30.6 | 12.2 | > 200 | – | – | – |
| CC(=O)Nc1cccc(Nc2cc(-c3cccc(F)c3)n3ncnc3n2)c1 [Example 131] | 69.4 | 26.3 | > 200 | – | – | – |
| O=C(O)c1ccc(Nc2cc(-c3cccc(F)c3)n3ncnc3n2)cc1 [Example 132] | 36.2 | > 200 | > 200 | – | – | – |
| CCOC(=O)Cc1ccc(Nc2cc(-c3cccc(F)c3)n3ncnc3n2)cc1 [Example 133] | 2.25 | 8.84 | > 200 | – | – | – |
| NC(=O)c1ccc(Nc2cc(-c3ccc4ccccc4c3)n3ncnc3n2)cc1 [Example 136] | 92.9 | 13.7 | > 200 | – | – | – |
| Cc1ccc(-c2cc(Nc3ccc(C(N)=O)cc3)nc3ncnn23)cc1 [Example 138] | 4.21 | 26.1 | > 200 | – | – | – |
| CCN(CC)CCNC(=O)c1ccc(Nc2cc(-c3ccc4c(c3)OCO4)n3ncnc3n2)cc1 [Example 140] | 1.8 | 1 | > 200 | – | – | – |
| NC(=O)c1ccc(Nc2cc(-c3cccc(OCc4cccnc4)c3)n3ncnc3n2)cc1 [Example 145] | – | – | – | 1.73 | 9.86 | 23.1 |
| NC(=O)c1ccc(Nc2cc(-c3cccc(OCC4CCCNC4)c3)n3ncnc3n2)cc1 (stereo not drawn) [Example 148] | – | – | – | 10.4 | 17 | 5.38 |
| NC(=O)c1ccc(Nc2cc(-c3cccc(OCc4ccccc4)c3)n3ncnc3n2)cc1 [Example 149] | – | – | – | 2.26 | 4.12 | 8.41 |
| NC(=O)COc1cccc(-c2cc(Nc3ccc(C(N)=O)cc3)nc3ncnn23)c1 [Example 157] | – | – | – | 4.82 | 6.05 | 6.56 |
| CCc1cc(OCCN)cc(-c2cc(Nc3ccc(C(N)=O)cc3)nc3ncnn23)c1 [Example 166] | – | – | – | 1.2 | 2.7 | 2.58 |

The next lines start with the values.

| IC50 (PDK1 enzyme; Table 3) [µM] | IC50 (Chk1; Table 3) [µM] | IC50 ([1]; Table 3) [µM] | IC50 (PDK1 enzyme; Table 4) [µM] | IC50 (Chk1; Table 4) [µM] | IC50 ([1]; Table 4) [µM] | Compound |
| --- | --- | --- | --- | --- | --- | --- |
| 4.08 | 14.9 | > 200 | – | – | – | Cc1cccc(-c2cc(Nc3ccc(C(N)=O)cc3)nc3ncnn23)c1 [Example 104] |
| 23.2 | 63.3 | > 200 | – | – | – | Cc1cccc(-c2cc(Nc3ccc(N4CCOCC4)cc3)nc3ncnn23)c1 [Example 106] |
| 51.6 | > 200 | 119 | – | – | – | N#Cc1ccc(Nc2cc(-c3cccc(F)c3)n3ncnc3n2)cc1 [Example 112] |
| 7.3 | 3.05 | > 200 | – | – | – | NC(=O)c1ccc(Nc2cc(-c3cccc(F)c3)n3ncnc3n2)cc1 [Example 117] |
| 115 | 2.58 | > 200 | – | – | – | CS(=O)(=O)c1ccc(Nc2cc(-c3cccc(F)c3)n3ncnc3n2)cc1 [Example 119] |
| 15.4 | 2.25 | > 200 | – | – | – | CCN(CC)CCNC(=O)c1ccc(Nc2cc(-c3ccccc3)n3ncnc3n2)cc1 [Example 121] |
| > 200 | 22.9 | > 200 | – | – | – | CCN(CC)CCNC(=O)c1ccc(Nc2cc(C(C)C)n3ncnc3n2)cc1 [Example 122] |
| 34.2 | 26.9 | > 200 | – | – | – | O=S(=O)(c1ccc(Nc2cc(-c3cccc(F)c3)n3ncnc3n2)cc1)N1CCOCC1 [Example 130] |
| 8.09 | 23.2 | > 200 | – | – | – | NC(=O)c1cccc(Nc2cc(-c3cccc(F)c3)n3ncnc3n2)c1 [Example 134] |
| 10.7 | 107 | > 200 | – | – | – | COc1ccc(C)cc1-c1cc(Nc2ccc(C(N)=O)cc2)nc2ncnn12 [Example 135] |
| 29.1 | 14.2 | > 200 | – | – | – | NC(=O)c1ccc(Nc2cc(-c3ccc4c(c3)OCO4)n3ncnc3n2)cc1 [Example 137] |
| 1.12 | 3.76 | > 200 | – | – | – | NC(=O)Cc1ccc(Nc2cc(-c3cccc(F)c3)n3ncnc3n2)cc1 [Example 139] |
| – | – | – | 7.6 | 20.8 | 5.51 | CCN(CC)CCOc1cccc(-c2cc(Nc3ccc(C(N)=O)cc3)nc3ncnn23)c1 [Example 146] |
| – | – | – | 6.13 | 5.21 | 71.7 | NCCCOc1cccc(-c2cc(Nc3ccc(C(N)=O)cc3)nc3ncnn23)c1 [Example 147] |
| – | – | – | 0.25 | 3 | 47.5 | NCCOc1cccc(-c2cc(Nc3ccc(C(N)=O)cc3)nc3ncnn23)c1 [Example 151] |
| – | – | – | 0.81 | 1.4 | 7.89 | CCN(CC)CCNC(=O)c1ccc(Nc2cc(-c3cccc(OCCN)c3)n3ncnc3n2)cc1 [Example 165] |
